IC50 and Ki data for five molecules are collected here from ChEMBL document CHEMBL1130631, “Synthesis of benzo[c]quinolizin-3-ones: selective non-steroidal inhibitors of steroid 5 alpha-reductase 1” (Bioorg Med Chem Lett, 1998).

pIC50, pKi: −log10 of the molar value. Bounds are passed on as bounds.

Assay [1] has as its target T1, 3-oxo-5-alpha-steroid 4-dehydrogenase 1 (Homo sapiens, UniProt P18405).
T1 sequence (P18405 whole entry): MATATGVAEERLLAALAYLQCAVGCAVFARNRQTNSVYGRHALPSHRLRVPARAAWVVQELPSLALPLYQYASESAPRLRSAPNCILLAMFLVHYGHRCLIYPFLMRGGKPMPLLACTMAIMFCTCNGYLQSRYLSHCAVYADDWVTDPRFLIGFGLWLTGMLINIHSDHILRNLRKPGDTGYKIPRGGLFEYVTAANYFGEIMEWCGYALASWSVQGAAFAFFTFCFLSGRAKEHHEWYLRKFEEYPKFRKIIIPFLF
Briefly: Compound was evaluated for the inhibition of human Steroid 5-alpha-reductase type 1 from recombinant CHO cells. The format is cell-based.

For assay [2], the target named is T2, 3-oxo-5-alpha-steroid 4-dehydrogenase 2 (Homo sapiens, UniProt P31213).
T2 sequence (P31213 whole entry): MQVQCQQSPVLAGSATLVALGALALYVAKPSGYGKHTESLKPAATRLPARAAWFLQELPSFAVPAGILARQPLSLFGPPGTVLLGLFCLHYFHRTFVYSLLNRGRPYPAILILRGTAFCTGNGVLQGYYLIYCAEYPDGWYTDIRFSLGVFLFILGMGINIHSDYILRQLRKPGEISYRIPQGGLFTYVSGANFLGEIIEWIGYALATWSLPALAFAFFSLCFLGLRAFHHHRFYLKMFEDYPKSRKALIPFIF
Nature of the assay: Compound was evaluated for the inhibition of human Steroid 5-alpha-reductase type 2 receptor from human prostate homogenates. The format is tissue-based, Prostate gland.

Assay [3] has as its target T2, 3-oxo-5-alpha-steroid 4-dehydrogenase 2. Nature of the assay: Compound was evaluated for the inhibition of human Steroid 5-alpha-reductase type 2.
Assay [4] concerns the target T1, 3-oxo-5-alpha-steroid 4-dehydrogenase 1. Briefly: Compound was evaluated for the inhibition of human Steroid 5-alpha-reductase type 1.
Assay [5] has as its target T2, 3-oxo-5-alpha-steroid 4-dehydrogenase 2. Nature of the assay: Compound was evaluated for the inhibition of human Steroid 5-alpha-reductase type 2 from human prostate homogenates.; No inhibition. The class given is tissue-based, Prostate gland.
In assay [6] the target is T1, 3-oxo-5-alpha-steroid 4-dehydrogenase 1. Briefly: Compound was evaluated for the inhibition of human Steroid 5-alpha-reductase type 1.
The target in assay [7] is T2, 3-oxo-5-alpha-steroid 4-dehydrogenase 2. Briefly: Compound was evaluated for the inhibition of human Steroid 5-alpha-reductase type 2 receptor from human prostate homogenates. The class given is tissue-based, Prostate gland.
The target is the same in assay [8]. Briefly: Compound was evaluated for the inhibition of human Steroid 5-alpha-reductase type 2 from human prostate homogenates; No inhibition. The class given is tissue-based, Prostate gland.

Regarding `CC(C)(C)NC(=O)[C@H]1CC[C@H]2[C@@H]3CC[C@H]4NC(=O)C=C[C@]4(C)[C@H]3CC[C@]12C` [FINASTERIDE], the negative logarithm of the IC50 (pIC50) (in general, the negative decadic logarithm of the IC50, by convention in mol/L) in assay [1] is 6.04; in assay [2] it was 8.92.

Regarding `CN1C(=O)CC[C@]2(C)c3ccc(Cl)cc3CCC12` (stereo not given in full), the values for the pKi in assay [3] and in assay [4] were below 6.00 and 8.05, respectively.

In the case of `O=C1C=C2CCc3ccccc3N2CC1`, in assay [1], the negative logarithm of the IC50 (pIC50) is 6.53. Besides, in assay [5], the IC50 result is on record as “Not Active”.

As to `CC(C)(C)NC(=O)[C@@H]1CCC2C3CCC4=CC(=O)CCN4C3=CC[C@@]21C` (stereo not given in full), the pIC50 in assay [6] is 6.90; in assay [7] it was 6.91.

Turning to `O=C1C=CN2c3ccccc3CCC2C1` (stereo not given), in assay [1], the pIC50 is 5.29. The IC50 result in assay [8] was “Not Active”.
